This passage reports inhibition and melting point results from patent publication US7923465B2, “Cannabinoid receptor ligands, pharmaceutical compositions containing them, and process for their preparation” (priority 2005, dated 2011).

In one data set the target is hCB2 (Homo sapiens, UniProt P34972). The data set is described as follows: In vitro binding assay using hCB2-CHO membranes, [3H]-CP-55,940 displacement (Protocol IV). Details: expressed in transfected cells; host or cells: CHO (hCB2-CHO, generated in-house). To be noted: 1 h; hCB2-CHO membranes, [3H]-CP-55,940 displacement; read-out: % Displacement Protocol IV. Summed up: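 Displacement of [3H]-CP-55,940 (0.75 nM) from membranes of CHO cells expressing human CB2 (25-50 μg) was measured in Tris-BSA buffer pH 7.4 with 5 mM MgCl2, 1 mM EDTA, 0.1% BSA, 1 h at 30 °C. Test compounds were at 300 nM final; nonspecific binding defined with 0.5 μM CP-55,940. Values are % displacement of specific binding.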
hCB2, sequence (P34972 whole entry): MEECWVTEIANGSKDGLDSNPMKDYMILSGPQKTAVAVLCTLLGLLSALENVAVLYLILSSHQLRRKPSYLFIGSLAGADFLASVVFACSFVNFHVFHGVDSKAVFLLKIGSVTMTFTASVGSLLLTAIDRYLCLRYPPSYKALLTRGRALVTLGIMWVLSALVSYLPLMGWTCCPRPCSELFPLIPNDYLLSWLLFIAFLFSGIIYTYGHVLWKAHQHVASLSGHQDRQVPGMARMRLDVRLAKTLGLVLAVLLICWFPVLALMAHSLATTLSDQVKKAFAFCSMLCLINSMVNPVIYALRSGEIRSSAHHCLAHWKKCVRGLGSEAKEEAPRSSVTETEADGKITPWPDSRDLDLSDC

The next data set addresses CB1 (Rattus norvegicus, UniProt P20272). Briefly: Rat CB1 receptor binding using brain membrane, [3H]SR141716A displacement (Protocol I). As to conditions: 1 h; rat brain membrane, [3H]SR141716A displacement; read-out: % Displacement Protocol I. Details: CB1 receptor present in a rat brain membrane preparation; from tissue; host or cells: rat brain membrane; inhibition: dose or concentration left out as unconfirmed. Here is the method:
I. In Vitro Protocol for Rat CB1 Receptor Binding Using Brain Membrane
In this assay, [^3H]SR141716A (5-(4-chlorophenyl)-1-(2,4-dichlorophenyl)-4-methyl-N-(1-piperidyl)pyrazole-3-carboxamide) was used to bind the CB1 receptor present in a rat brain membrane preparation which can be displaced by unlabeled ligands having affinity to the CB1 receptor.
The assay was performed according to the modified method of Thomas et al., 1998 (JPET 285: 285-292). The total reaction mixture ([…]) contained Tris-BSA buffer (50 mM Tris, pH 7.4 with 1.5% BSA) or unlabeled SR141716A […] or test samples […], [^3H] SR141716A (2 nM) and […] of rat brain membrane. The non-specific binding was defined by […] of SR141716A. The assay mixture was incubated at 37° C. for 1 hour. The reaction was then stopped by rapid filtration under vacuum using Whatman GF/B-96 micro filter plate. A scintillation cocktail was added and radioactive counts were measured using a Topcount beta scintillation counter.
The standard and test sample dilutions were made in an assay buffer containing either ethanol or DMSO at a final concentration of 1%.
The percent (%) displacement by a test ligand was calculated by comparing the specific bound values.

SMILES strings stand for the structures.

CB1, sequence (P20272 whole entry): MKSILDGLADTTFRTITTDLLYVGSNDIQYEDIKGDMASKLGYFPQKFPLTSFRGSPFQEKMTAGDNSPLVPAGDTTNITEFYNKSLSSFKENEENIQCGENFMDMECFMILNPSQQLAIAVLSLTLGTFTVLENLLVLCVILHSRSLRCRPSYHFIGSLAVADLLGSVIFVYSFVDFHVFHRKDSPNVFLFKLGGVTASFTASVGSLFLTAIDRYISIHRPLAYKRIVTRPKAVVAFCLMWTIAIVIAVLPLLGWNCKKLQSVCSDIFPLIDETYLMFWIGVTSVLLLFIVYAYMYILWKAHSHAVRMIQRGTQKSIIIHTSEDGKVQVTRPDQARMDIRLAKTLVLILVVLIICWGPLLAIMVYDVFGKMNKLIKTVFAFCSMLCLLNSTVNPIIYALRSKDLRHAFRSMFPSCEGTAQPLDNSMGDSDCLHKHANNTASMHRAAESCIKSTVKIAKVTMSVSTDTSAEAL

Consider `O=C(NNc1ccc(Cl)cc1Cl)c1nn(-c2ccccc2)c2c1C1CC3CC(C1)CC2C3` [Example 167, N(7)-[(2,4-Dichlorophenyl)amino]-5-phenyl-5,6-diazatetracyclo[7.3.1.1^3,11.0^4,8]tetradeca-4(8),6-diene-7-carboxamide], for which the melting point (usually the temperature, or range, at which the solid turns liquid) fell in the range of 166 to 170 °C. Besides, the inhibition at 0.3 µM on hCB2 amounted to 24.6%. On CB1, the inhibition amounted to 61.3%.

`O=C(NCc1ccccc1)c1nn(-c2ccccc2Br)c2c1C1CCC2C1` (stereo not drawn) [Example 272, N(3)-Benzyl-1-(2-bromophenyl)-4,5,6,7-tetrahydro-1H-4,7-methano-indazole-3-carboxamide] came in with a melting point of 110 °C. Besides, the inhibition at 0.3 µM on hCB2 was 18.4%. Moreover, the inhibition at CB1 is -4.5%.

In turn, `O=C(NCc1ccccc1)c1nn(-c2ccc(Br)cc2)c2c1C1CCC2C1` (stereo not drawn) [Example 276, N(3)-Benzyl-1-(4-bromophenyl)-4,5,6,7-tetrahydro-1H-4,7-methano-indazole-3-carboxamide] gave a melting point of 89 °C. Also, the inhibition at 0.3 µM at hCB2 turned out to be 14.1%. The inhibition at CB1 was 25.3%.

`O=C(NNc1ccc(Cl)c(Cl)c1)c1nn(-c2ccc(Cl)cc2Cl)c2c1C1CCC2C1` (stereo not drawn) [Example 262, N(3)-[(3,4-Dichlorophenyl)amino]-1-(2,4-dichlorophenyl)-4,5,6,7-tetrahydro-1H-4,7-methano-indazole-3-carboxamide] returned a melting point of 176 to 179 °C. In addition, the inhibition at 0.3 µM at hCB2 came out at 32.6%. Further, the inhibition at CB1 is -1.6%.

Consider `O=C(NNc1ccc(F)cc1)c1nn(-c2ccc(Cl)cc2)c2c1C1CCC2C1` (stereo not drawn) [Example 234, N(3)-[(4-Fluorophenyl)amino]-1-(4-chlorophenyl)-4,5,6,7-tetrahydro-1H-4,7-methano-indazole-3-carboxamide], for which the melting point worked out at 212 °C. For the same compound, the inhibition at 0.3 µM at hCB2 is 10.6%. Also, on CB1, the inhibition is 36.3%.

`O=C(NNc1ccc(Cl)cc1Cl)c1nn(-c2ccc(Cl)cc2Cl)c2c1C1CC3CC(C1)CC2C3` [Example 175, N(7)-(2,4-Dichlorophenylamino)-5-(2,4-dichlorophenyl)-5,6-diazatetracyclo[7.3.1.1^3,11.0^4,8]tetradeca-4(8),6-diene-7-carboxamide]: the melting point lay within 153 to 156 °C. On hCB2, the inhibition at 0.3 µM stood at 18.5%. Further, the inhibition at CB1 came to 66%.

The compound `O=C(NN1CCCCC1)c1nn(-c2ccccc2Cl)c2c1C1CCC2C1` (stereo not drawn) [Example 205, N(3)-Piperidino-1-(2-chlorophenyl)-4,5,6,7-tetrahydro-1H-4,7-methano-indazole-3-carboxamide] registered a melting point of 232 °C. The inhibition at 0.3 µM at hCB2 came out at 15.9%. At CB1, the inhibition was -12.7%.

The compound `O=C(NN1CCCCC1)c1nn(-c2ccc(Cl)cc2)c2c1C1CCC2C1` (stereo not drawn) [Example 209, N(3)-Piperidino-1-(4-chlorophenyl)-4,5,6,7-tetrahydro-1H-4,7-methano-indazole-3-carboxamide] gave a melting point of 78 to 81 °C. The inhibition at 0.3 µM at hCB2 came to 50.5%. The inhibition on CB1 is 23.5%.

In turn, `COc1ccc(-n2nc(C(=O)NNc3ccc(Cl)cc3Cl)c3c2C2CC4CC(CC3C4)C2)cc1` [Example 165, N(7)-(2,4-Dichlorophenylamino)-5-(4-methoxyphenyl)-5,6-diazatetracyclo[7.3.1.1^3,11.0^4,8]tetradeca-4(8),6-diene-7-carboxamide] showed a melting point of 199 °C. On hCB2, the inhibition at 0.3 µM came out at 45.3%. Also, the inhibition at CB1 came to 14.2%.

In turn, `O=C(NNc1ccccc1)c1nn(-c2ccc(F)cc2)c2c1C1CCC2C1` (stereo not drawn) [Example 284, N(3)-Phenylamino-1-(4-fluorophenyl)-4,5,6,7-tetrahydro-1H-4,7-methano-indazole-3-carboxamide] had a melting point of 163 °C. For the same compound, the inhibition at 0.3 µM at hCB2 was 0.9%. The inhibition on CB1 was 13.7%.

In turn, `O=C(Nn1cnnc1)c1nn(-c2ccc(Cl)cc2Cl)c2c1C1CCC2C1` (stereo not drawn) [Example 240, N(3)-(4H-1,2,4-triazol-4-yl)-1-(2,4-dichlorophenyl)-4,5,6,7-tetrahydro-1H-4,7-methano-indazole-3-carboxamide] yielded a melting point of 231 to 233 °C. Moreover, the inhibition at 0.3 µM at hCB2 was determined as 7.98%. Also, the inhibition at CB1 came to 1.5%.

`Cc1ccc(-n2nc(C(=O)NN3CCCCC3)c3c2C2CC4CC(CC3C4)C2)cc1` [Example 160, N(7)-Piperidino-5-(4-methylphenyl)-5,6-diazatetracyclo[7.3.1.1^3,11.0^4,8]tetradeca-4(8),6-diene-7-carboxamide] gave a melting point of 228 to 232 °C. The inhibition at 0.3 µM at hCB2 was determined as 20.8%. The inhibition on CB1 was 10%.

`O=C(NCc1ccc(Cl)cc1)c1nn(-c2ccc(Cl)cc2)c2c1C1CCC2C1` (stereo not drawn) [Example 222, N(3)-(4-Chlorobenzyl)-1-(4-chlorophenyl)-4,5,6,7-tetrahydro-1H-4,7-methano-indazole-3-carboxamide] registered a melting point of 157 to 160 °C. The inhibition at 0.3 µM at hCB2 was found to be 15.7%. The inhibition at CB1 came to 39.4%.

In turn, `O=C(NN(c1ccc(Cl)cc1Cl)C1CCCCC1)c1nn(-c2ccc(Cl)cc2)c2c1C1CC3CC(C1)CC2C3` [Example 129, N(7)-(2,4-Dichlorophenyl-N′-cyclohexylamino)-5-(4-chlorophenyl)-5,6-diazatetracyclo[7.3.1.1^3,11.0^4,8]tetradeca-4(8),6-diene-7-carboxamide] registered a melting point of 95 to 96 °C. Further, the inhibition at 0.3 µM at hCB2 stood at 62.9%. In addition, the inhibition on CB1 was 65.2%.

`COc1ccc(-n2nc(C(=O)NCc3ccccc3Cl)c3c2C2CC4CC(CC3C4)C2)cc1` [Example 164, N7-(2-Chlorobenzyl)-5-(4-methoxyphenyl)-5,6-diazatetracyclo[7.3.1.1^3,11.0^4,8]tetradeca-4(8),6-diene-7-carboxamide] displayed a melting point of 178 °C. Moreover, the inhibition at 0.3 µM on hCB2 was 13.2%. Also, at CB1, the inhibition was 8.2%.

Regarding `O=C(NN1CCCCC1)c1nn(-c2ccc(Br)cc2)c2c1C1CCC2C1` (stereo not drawn) [Example 274, N(3)-Piperidino-1-(4-bromophenyl)-4,5,6,7-tetrahydro-1H-4,7-methano-indazole-3-carboxamide], the melting point came out at 173 °C. Moreover, at hCB2, the inhibition at 0.3 µM amounted to 35.4%. Moreover, the inhibition at CB1 came to 25.7%.

For the compound `O=C(Nc1ccccc1)c1nn(-c2ccc(Cl)cc2)c2c1C1CCC2C1` (stereo not drawn) [Example 214, N(3)-Phenyl-1-(4-chlorophenyl)-4,5,6,7-tetrahydro-1H-4,7-methano-indazole-3-carboxamide], the melting point lay in the range of 137 to 140 °C. Moreover, the inhibition at 0.3 µM on hCB2 came to 41.3%. In addition, the inhibition on CB1 is 10.1%.

In turn, `O=C(NNc1ccc(Cl)cc1)c1n[nH]c2c1C1(c3ccc(Cl)cc3)CCC2C1` (stereo not drawn) [Example 229, N(3)-[(4-Chlorophenyl)amino]-4-(4-chlorophenyl)-4,5,6,7-tetrahydro-1H-4,7-methano-indazole-3-carboxamide] showed a melting point of 202 to 205 °C. Further, on hCB2, the inhibition at 0.3 µM amounted to 24.6%. Also, the inhibition at CB1 worked out at 47.1%.

As to `O=C(NCc1ccccc1)c1nn(-c2ccccc2Br)c2c1C1CC3CC(C1)CC2C3` [Example 102, N(7)-Benzyl-5-(2-bromophenyl)-5,6-diazatetracyclo[7.3.1.1^3,11.0^4,8]tetradeca-4(8),6-diene-7-carboxamide], the melting point stood at 20 °C. Besides, the inhibition at 0.3 µM on hCB2 stood at 0.74%. In addition, at CB1, the inhibition is 27.3%.

`O=C(NNc1ccccc1)c1nn(-c2ccccc2Br)c2c1C1CCC2C1` (stereo not drawn) [Example 273, N(3)-Phenylamino-1-(2-bromophenyl)-4,5,6,7-tetrahydro-1H-4,7-methano-indazole-3-carboxamide] returned a melting point of 219 °C. In addition, the inhibition at 0.3 µM at hCB2 came to 26.2%. In addition, at CB1, the inhibition is -5.9%.

The compound `O=C(NN1CCOCC1)c1nn(-c2ccc(Cl)cc2)c2c1C1CC3CC(C1)CC2C3` [Example 103, N(7)-Morpholino-5-(4-chlorophenyl)-5,6-diazatetracyclo[7.3.1.1^3,11.0^4,8]tetradeca-4(8),6-diene-7-carboxamide] gave a melting point of 220 °C. In addition, on hCB2, the inhibition at 0.3 µM turned out to be 6.99%. Besides, the inhibition at CB1 amounted to 22.2%.

Take `O=C(NNc1ccccc1F)c1nn(-c2ccc(Cl)cc2)c2c1C1CCC2C1` (stereo not drawn) [Example 232, N(3)-[(2-Fluorophenyl)amino]-1-(4-chlorophenyl)-4,5,6,7-tetrahydro-1H-4,7-methano-indazole-3-carboxamide]: the melting point was found to be 91 °C. For the same compound, the inhibition at 0.3 µM at hCB2 is 13.8%. On CB1, the inhibition was 49.7%.
